Experimental data: patent US20160089373A1, “CARDIO- AND RENOPROTECTIVE ANTIDIABETIC THERAPY” (Boehringer Ingelheim International GmbH, priority 2013, published 2016)
Where two headings read alike, the source gives them in different places.

What was measured:
[1] = system: podocalyxin; assay: Podocalyxin immunohistochemistry of kidney sections (podocyte integrity) in db/db mice; type: in vivo; settings: 12 weeks, semi-quantitative score 0-3, p<0.05 vs diabetic mice
Protocol: The expression of podocalyxin is analysed by immunohistochemistry using a podocalyxin specific antibody. Kidney sections from male diabetic db/db mice (10 weeks old at start and treated for 3 months) in the following groups are analysed:
All of the evaluations of the glomerular staining intensities are done semi-quantitatively by two different experts of kidney pathology blinded for the slides.
The predefined scoring gradient is 0, 1, 2, and 3.0 means no expression, whereas 3 is given when expression is highest. Group means are compared with a non-parametric test. P values less than 0.05 are considered significant.
(§1) Diabetic nephropathy is the main cause of end-stage renal disease. […] Heterozygous db/+ mice treated with vehicle were used as controls (n=8). Levels of glucose, triglycerides, insulin, cystatin C and creatinine were analysed in serum and urine samples at baseline and monthly thereafter. Body weight, urinary albumin excretion and OGTT were monitored periodically.
(§2) Renal histology (glomerulosclerosis, tubulointerstitial fibrosis) and expression of the sialoglycoprotein podocalyxin (a marker of podocyte integrity in the glomeruli, marker for glomerular damage), glucagon-like peptide 1 receptor (GLP-1R), alpha-smooth muscle actin and type I collagen were evaluated at the end of the study.

[2] = system: male diabetic db/db mice; assay: Diabetic nephropathy study in db/db mice (serum/urine parameters, renal histology); type: in vivo; settings: for glomerular mesangial matrix expansion (histology) / tubulointerstitial fibrosis (histology): compared with diabetic vehicle; for effects on fasted or post-prandial glucose levels: db/db mice, 12 weeks treatment, linagliptin 3 mg/kg/day, enalapril 20 mg/kg/day
Protocol: as §1, §2

[3] = Pooled analysis of four 24-week placebo-controlled trials: albuminuria in T2D patients with early diabetic nephropathy on stable ACE/ARB (set 1); type: in vivo, human; settings: 5 mg qd, 24 weeks
Text: Despite optimal therapy, people with type 2 diabetes (T2D) remain at high risk for kidney damage, manifest as abuminuria, and many develop progressive renal failure. Further, despite optimal therapy with inhibitors of the renin-angiotensin-aldosterone system (RAAS), patients with type 2 diabetes mellitus (T2DM) remain at an increased risk of progressive renal failure and cardiovascular disease, for which abuminuria has emerged as a predictive biomarker. […] Participants were included in this analysis if they had: i) 30≦UACR≦3000 mg/g creatinine; ii) stable treatment with ACE/ARBs ≧4 weeks prior and during the trial; and iii) eGFR >30 ml/min/1.73 m^2. The endpoint was the percentage change in geometric mean UACR. […] After 24 weeks, placebo-corrected changes in A1C and FPG were −0.71% and −26 mg/dl, respectively (both p<0.0001). […] This protective effect may be independent of race.
(§3) The endpoint in both sets was the percentage change in geometric mean UACR after 24 weeks.

[4] = Pooled analysis of seven placebo-controlled trials: albuminuria in elderly T2D patients with diabetic nephropathy (set 2); type: in vivo, human; settings: 5 mg q.d., 24 weeks, set 2, aged ≧65 years
Text: as §3

[5] = for feτ, s: steady state (Day 12), gMean
[6] = system: glucagon-like peptide 1 receptor (GLP-1R); assay: GLP-1R immunohistochemical staining of kidney sections in db/db mice; type: in vivo; settings: P<0.05 vs vehicle-treated db/db mice
Protocol: as §1, §2

[7] = Meta-analysis of renal safety/outcomes in 13 phase 3 placebo-controlled trials, 5466 T2D patients
Text: The aim of this study was to evaluate renal safety/outcomes with linagliptin in phase 3, randomized, double-blind, placebo-controlled trials (≧12 wks).

[8] = linagliptin compared with enalapril, p<0.05

Row | feτ, s ([5]; 1 mg once daily oral) [%] | feτ, s ([5]; 2.5 mg once daily oral) [%] | feτ, s ([5]; 5 mg once daily oral) [%] | feτ, s ([5]; 10 mg once daily oral) [%] | excreted via the kidney ([5]; therapeutic oral dose levels, of the administered oral dose) [%] | Structure (SMILES) | podocalyxin expression (glomerular staining score) [1] | glomerular mesangial matrix expansion (histology) ([2]; p<0.05) | tubulointerstitial fibrosis (histology) ([2]; p<0.05) | effects on fasted or post-prandial glucose levels [2] | UACR between group difference vs placebo ([3]; set 1) [%] | lowering of adjusted UACR (percentage change in geometric mean) ([3]; set 1, on stable ACE/ARB) [%] | UACR reduction versus placebo (trend) [4] [%] | route of excretion ([5]; human, in vivo) | expression of GLP-1R in the glomeruli [6] | tubulointerstitial fibrosis [2, 8] | urinary albumin excretion rates [2, 8] | patients with composite renal endpoint events ([7]; linagliptin 5 mg qd, n=3505) [%] | patients with composite renal endpoint events (number) ([7]; linagliptin 5 mg qd, n=3505) | HR for the composite endpoint vs placebo ([7]; patients <65 yrs) | HR for the composite endpoint vs placebo ([7]; patients >65 yrs)
1 | – | – | – | – | – | CCOC(=O)[C@H](CCc1ccccc1)N[C@@H](C)C(=O)N1CCC[C@H]1C(=O)O [enalapril, reference compound] | 2.4±0.2 | reduced almost to control levels | reduced almost to control levels | limited effects | – | – | – | – | – | – | – | – | – | – | –
2 | 3.34 | 3.06 | 6.27 | 3.22 | < 7 | CC#CCn1c(N2CCC[C@@H](N)C2)nc2c1c(=O)n(Cc1nc(C)c3ccccc3n1)c(=O)n2C [linagliptin] | 2.3±0.2 | reduced almost to control levels | reduced almost to control levels | limited effects | −29 | 33 | −25 | primarily excreted unchanged via the bile | 1.90±0.04 | significantly decreased | significantly decreased | 12.8 | 448 | 0.77 | 1.04
